Each compound was assayed on B cell receptor-mediated activation of B cells in human blood (assay: Inhibition of B cell activation in whole blood measured by CD69 expression). Conditions: anti-IgM stimulation 20 h, concentration decreasing by 50% the percentage of CD69-positive cells that are also CD20-positive.
Format: cell-based
Experimental: Inhibition of B Cell Activation in Whole Blood Measured by CD69 Expression
A procedure to test the ability of Btk inhibitors to suppress B cell receptor-mediated activation of B cells in human blood is as follows:
Human whole blood (HWB) is obtained from healthy volunteers, with the following restrictions: 24 hr drug-free, non-smokers. Blood is collected by venipuncture into Vacutainer tubes anticoagulated with sodium heparin. Test compounds are diluted to ten times the desired starting drug concentration in PBS (20×), followed by three-fold serial dilutions in 10% DMSO in PBS to produce a nine point dose-response curve. 5.5 μl of each compound dilution is added in duplicate to a 2 mL 96-well V bottom plate (Analytical Sales and Services, #59623-23); 5.5 μl of 10% DMSO in PBS is added to control and no-stimulus wells. HWB ([…] is added to each well, and after mixing the plates are incubated at 37 C, 5% CO2, 100% humidity for 30 minutes. Goat F(ab′)2 anti-human IgM (Southern Biotech, #2022-14) (10 μl of a 500 μ/mL solution, 50 μg/mL final concentration) is added to each well (except the no-stimulus wells) with mixing and the plates are incubated for an additional 20 hours. At the end of the 20 hour incubation, samples are incubated with florescent-probe-labeled anti-bodies (15 ul PE Mouse anti-Human CD20, BD Pharmingen, #555623, and/or 20 ul APC Mouse anti-Human CD69, BD Pharmingen #555533) for 30 minutes, at 37 C, 5% CO2, 100% humidity. Included are induced control, unstained and single stains for compensation adjustments and initial voltage settings. Samples are then lysed with 1 mL of 1× Pharmingen Lyse Buffer (BD Pharmingen #555899), and plates are centrifuged at 1800 rpm for 5 minutes. Supernatants are removed via suction and the remaining pellets are lysed again with another 1 mL of 1× Pharmingen Lyse Buffer, and plates are spun down as before. Supernatants are aspirated and remaining pellets are washed in FACs buffer (PBS+1% FBS). After a final spin, the supernantants are removed and pellets are resuspended in 180 ul of FACs buffer. Samples are transferred to a 96 well plate suitable to be run on the HTS 96 well system on the BD LSR II flow cytometer. Using appropriate excitation and emission wavelengths for the fluorophores used, data are acquired and percent positive cell values are obtained using Cell Quest Software. Results are initially analyzed by FACS analysis software (Flow Jo). […] The IC50 values are calculated using XLfit software version 3, equation 201.

| Compound | IC50 [nM] |
| --- | --- |
| CN1CCN(c2ccc(Nc3cc(-c4cccc(N5CCNc6cc(C(C)(C)C)ccc6C5=O)c4CO)cn(C)c3=O)nc2)CC1 [Compound I-4, 8-tert-Butyl-4-(2-hydroxymethyl-3-{1-methyl-5-[5-(4-methyl-piperazin-1-yl)-pyridin-2-ylamino]-6-oxo-1,6-dihydro-pyridin-3-yl}-phenyl)-1,2,3,4-tetrahydro-benzo[e][1,4]diazepin-5-one] | 38 |
| Cn1cc(-c2cccc(N3CCNc4cc(C(C)(C)C)ccc4C3=O)c2CO)cc(Nc2ccc(C(=O)N3CCOCC3)cn2)c1=O [Compound I-3, 8-tert-Butyl-4-(2-hydroxymethyl-3-{1-methyl-5-[5-(morpholine-4-carbonyl)-pyridin-2-ylamino]-6-oxo-1,6-dihydro-pyridin-3-yl}-phenyl)-1,2,3,4-tetrahydro-benzo[e][1,4]diazepin-5-one] | 18 |
| Cn1cc(-c2cccc(N3CCNc4cc(C5CC5)ccc4C3=O)c2CO)cc(Nc2ccc(C(=O)N3CCOCC3)cn2)c1=O [Compound I-1, 8-Cyclopropyl-4-(2-hydroxymethyl-3-{1-methyl-5-[5-(morpholine-4-carbonyl)-pyridin-2-ylamino]-6-oxo-1,6-dihydro-pyridin-3-yl}-phenyl)-1,2,3,4-tetrahydro-benzo[e][1,4]diazepin-5-one] | 111 |
| Cn1cc(-c2cccc(N3CCNc4cc(C5CC5)ccc4C3=O)c2CO)cc(Nc2ccc(N3CCOCC3)cn2)c1=O [Compound I-2, 8-Cyclopropyl-4-{2-hydroxymethyl-3-[1-methyl-5-(5-morpholin-4-yl-pyridin-2-ylamino)-6-oxo-1,6-dihydro-pyridin-3-yl]-phenyl}-1,2,3,4-tetrahydro-benzo[e][1,4]diazepin-5-one] | 96 |

Other lines, results leading:

| IC50 [nM] | Compound |
| --- | --- |
| 8 | CCN1CCN(c2ccc(Nc3cc(-c4cccc(N5CCOc6cc(C(C)(C)C)ccc6C5=O)c4CO)cn(C)c3=O)nc2)CC1 [II-3, 8-tert-Butyl-4-(3-{5-[5-(4-ethyl-piperazin-1-yl)-pyridin-2-ylamino]-1-methyl-6-oxo-1,6-dihydro-pyridin-3-yl}-2-hydroxymethyl-phenyl)-3,4-dihydro-2H-benzo[f][1,4]oxazepin-5-one] |
| 4 | CN1CCN(c2ccc(Nc3cc(-c4cccc(N5CCOc6cc(C(C)(C)C)ccc6C5=O)c4CO)cn(C)c3=O)nc2)CC1 [II-2, 8-tert-Butyl-4-(2-hydroxymethyl-3-{1-methyl-5-[5-(4-methyl-piperazin-1-yl)-pyridin-2-ylamino]-6-oxo-1,6-dihydro-pyridin-3-yl}-phenyl)-3,4-dihydro-2H-benzo[f][1,4]oxazepin-5-one] |
| 16 | Cn1cc(-c2cccc(N3CCOc4cc(C(C)(C)C)ccc4C3=O)c2CO)cc(Nc2ccc(C(=O)N3CCOCC3)cn2)c1=O [II-1, 8-tert-Butyl-4-(2-hydroxymethyl-3-{1-methyl-5-[5-(morpholine-4-carbonyl)-pyridin-2-ylamino]-6-oxo-1,6-dihydro-pyridin-3-yl}-phenyl)-3,4-dihydro-2H-benzo[f][1,4]oxazepin-5-one] |
